Test results: the NIST ThermoML archive (doi:10.1016/j.jct.2012.01.001)
± gives the expanded uncertainty stated by the source.

Test: Molar enthalpy of transition or fusion
Details: Crystal; DSC

`Oc1cccc2ccccc12` [1-naphthol] and `Oc1ccc2ccccc2c1` [2-hydroxynaphthalene] are within error of each other in “Molar enthalpy of transition or fusion” value: 5.17 ± 0.155 kcal/mol for the first, 5.04 ± 0.151 kcal/mol for the second.

For `COc1cc(C=O)ccc1O` [vanillin], the “Molar enthalpy of transition or fusion” value was 5.34 ± 0.16 kcal/mol.
